# Test results reported in PubChem BioAssay AID2060886 (Molecular Pharmacology Branch, DTP, NCI, 2025).
# Test system: 653999-131-R-J2-PDC complex spheroids, growth inhibition
# Experiment: Anticancer human tumor 653999-131-R-J2-PDC patient-derived lung adenocarcinoma cell line growth inhibition [RAS]
# Details: for viability, T/C: stronger effect = lower value
# In short: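 Agents were tested in combination matrices in half-log decrements from a top concentration at or near clinical Cmax (10 microM if undetermined). Targets were multi-cell spheroids of tumour lines plus HUVEC and MSC stromal cells.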
# [1] = curve of first compound, second compound 0.0316 µM
# [2] = curve of first compound, second compound 0.1 µM
# [3] = curve of first compound, second compound 0.316 µM
# [4] = curve of first compound, second compound 1 µM
# [5] = curve of first compound, second compound 3.16 µM
# [6] = curve of first compound, second compound 10 µM
# [7] = second compound 0.0316 µM, first compound 0.0316 µM
# [8] = second compound 0.0316 µM, first compound 0.1 µM
# [9] = second compound 0.0316 µM, first compound 0.316 µM
# [10] = second compound 0.0316 µM, first compound 1 µM
# [11] = second compound 0.1 µM, first compound 0.0316 µM
# [12] = second compound 0.1 µM, first compound 0.1 µM
# [13] = second compound 0.1 µM, first compound 0.316 µM
# [14] = second compound 0.1 µM, first compound 1 µM
# [15] = second compound 0.316 µM, first compound 0.0316 µM
# [16] = second compound 0.316 µM, first compound 0.1 µM
# [17] = second compound 0.316 µM, first compound 0.316 µM
# [18] = second compound 0.316 µM, first compound 1 µM
# [19] = second compound 1 µM, first compound 0.0316 µM
# [20] = second compound 1 µM, first compound 0.1 µM
# [21] = second compound 1 µM, first compound 0.316 µM
# [22] = second compound 1 µM, first compound 1 µM
# [23] = second compound 3.16 µM, first compound 0.0316 µM
# [24] = second compound 3.16 µM, first compound 0.1 µM
# [25] = second compound 3.16 µM, first compound 0.316 µM
# [26] = second compound 3.16 µM, first compound 1 µM
# [27] = second compound 10 µM, first compound 0.0316 µM
# [28] = second compound 10 µM, first compound 0.1 µM
# [29] = second compound 10 µM, first compound 0.316 µM
# [30] = second compound 10 µM, first compound 1 µM
# [31] = second compound 0.0316 µM, first compound 3.16 µM
# [32] = second compound 0.0316 µM, first compound 10 µM
# [33] = second compound 0.1 µM, first compound 3.16 µM
# [34] = second compound 0.1 µM, first compound 10 µM
# [35] = second compound 0.316 µM, first compound 3.16 µM
# [36] = second compound 0.316 µM, first compound 10 µM
# [37] = second compound 1 µM, first compound 3.16 µM
# [38] = second compound 1 µM, first compound 10 µM
# 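Also: spheroids exposed to the agents for seven days before the readout.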
smiles,measurement,setting,value
Nc1ccn(C2OC(CO)C(O)C2(F)F)c(=O)n1 (stereo not drawn) + C#Cc1c(F)ccc2cc(O)cc(-c3ncc4c(N5CC6CCC(C5)N6)nc(OCC56CCCN5CC(F)C6)nc4c3F)c12,IC50,[1],0.0711 µM
same,IC50,[2],0.0368 µM
same,IC50,[3],0.0118 µM
same,IC50,[4],0.00337 µM
same,IC50,[5],< 0.00316 µM
same,IC50,[6],< 0.00316 µM
same,"viability, T/C","second compound 0.0316 µM, first compound 0.00316 µM",98.5%
same,"viability, T/C","second compound 0.0316 µM, first compound 0.01 µM",74.4%
same,"viability, T/C",[7],58.3%
same,"viability, T/C",[8],48.5%
same,"viability, T/C",[9],36.6%
same,"viability, T/C",[10],32.4%
same,"viability, T/C","second compound 0.1 µM, first compound 0.00316 µM",96.9%
same,"viability, T/C","second compound 0.1 µM, first compound 0.01 µM",59.8%
same,"viability, T/C",[11],56.4%
same,"viability, T/C",[12],46%
same,"viability, T/C",[13],34.6%
same,"viability, T/C",[14],31.4%
same,"viability, T/C","second compound 0.316 µM, first compound 0.00316 µM",58.1%
same,"viability, T/C","second compound 0.316 µM, first compound 0.01 µM",52.4%
same,"viability, T/C",[15],39.2%
same,"viability, T/C",[16],32.1%
same,"viability, T/C",[17],27.6%
same,"viability, T/C",[18],26.5%
same,"viability, T/C","second compound 1 µM, first compound 0.00316 µM",50.5%
same,"viability, T/C","second compound 1 µM, first compound 0.01 µM",43%
same,"viability, T/C",[19],29.8%
same,"viability, T/C",[20],20.9%
same,"viability, T/C",[21],19.9%
same,"viability, T/C",[22],18.9%
same,"viability, T/C","second compound 3.16 µM, first compound 0.00316 µM",35.4%
same,"viability, T/C","second compound 3.16 µM, first compound 0.01 µM",28.4%
same,"viability, T/C",[23],19.1%
same,"viability, T/C",[24],14.9%
same,"viability, T/C",[25],14.6%
same,"viability, T/C",[26],14.5%
same,"viability, T/C","second compound 10 µM, first compound 0.00316 µM",33.6%
same,"viability, T/C","second compound 10 µM, first compound 0.01 µM",13.5%
same,"viability, T/C",[27],21.2%
same,"viability, T/C",[28],13.9%
same,"viability, T/C",[29],12.7%
same,"viability, T/C",[30],10.1%
NC1c2ccccc2OC12CCN(c1cnc3c(N4CCCc5ncccc54)n[nH]c3n1)CC2 (stereo not drawn) + C#Cc1c(F)ccc2cc(O)cc(-c3ncc4c(N5CC6CCC(C5)N6)nc(OCC56CCCN5CC(F)C6)nc4c3F)c12,IC50,[1],> 10 µM
same,IC50,[2],1.39 µM
same,IC50,[3],< 0.0316 µM
same,IC50,[4],< 0.0316 µM
same,IC50,[5],< 0.0316 µM
same,IC50,[6],< 0.0316 µM
same,"viability, T/C",[7],72.8%
same,"viability, T/C",[8],67.5%
same,"viability, T/C",[9],64.5%
same,"viability, T/C",[10],72.2%
same,"viability, T/C",[31],71.3%
same,"viability, T/C",[32],60.2%
same,"viability, T/C",[11],64.5%
same,"viability, T/C",[12],75.4%
same,"viability, T/C",[13],60.1%
same,"viability, T/C",[14],53.2%
same,"viability, T/C",[33],44.6%
same,"viability, T/C",[34],41.1%
same,"viability, T/C",[15],48%
same,"viability, T/C",[16],50.4%
same,"viability, T/C",[17],40.4%
same,"viability, T/C",[18],42.7%
same,"viability, T/C",[35],32.6%
same,"viability, T/C",[36],45.8%
same,"viability, T/C",[19],41.7%
same,"viability, T/C",[20],34.8%
same,"viability, T/C",[21],33.9%
same,"viability, T/C",[22],32.4%
same,"viability, T/C",[37],32.7%
same,"viability, T/C",[38],19.5%
same,"viability, T/C",[23],30.3%
same,"viability, T/C",[24],25.8%
same,"viability, T/C",[25],16.9%
same,"viability, T/C",[26],18.1%
same,"viability, T/C","second compound 3.16 µM, first compound 3.16 µM",18.7%
same,"viability, T/C","second compound 3.16 µM, first compound 10 µM",13%
same,"viability, T/C",[27],12%
same,"viability, T/C",[28],7.13%
same,"viability, T/C",[29],7.02%
same,"viability, T/C",[30],6.33%
same,"viability, T/C","second compound 10 µM, first compound 3.16 µM",7.29%
same,"viability, T/C","second compound 10 µM, first compound 10 µM",7.2%
CCc1c2c(nc3ccc(O)cc13)-c1cc3c(c(=O)n1C2)COC(=O)[C@]3(O)CC,"viability, T/C",compound 0.000949 µM,85% [middle of 4 runs]
same,"viability, T/C",compound 0.003 µM,66.5% [middle of 4 runs]
same,"viability, T/C",compound 0.00949 µM,49.5% [middle of 4 runs]
same,"viability, T/C",compound 0.03 µM,38.3% [middle of 4 runs]
same,"viability, T/C",compound 0.0949 µM,26.5% [middle of 4 runs]
same,"viability, T/C",compound 0.3 µM,13.7% [middle of 4 runs]
same,IC50,curve of compound,9.95 nM [middle of 4 runs]
CC(Nc1ccc2c(c1)OCCn1cc(N3C(=O)OCC3C(F)F)nc1-2)C(N)=O (stereo not drawn) + C=CC(=O)N1CCN(c2nc(OCC3CCCN3C)nc3c(F)c(-c4nc(N)cc(C)c4C(F)(F)F)c(Cl)cc23)C(C)C1,IC50,"curve of first compound, second compound 0.00316 µM",0.645 µM
same,IC50,"curve of first compound, second compound 0.01 µM",0.717 µM
same,IC50,[1],0.636 µM
same,IC50,[2],1.16 µM
same,IC50,[3],0.536 µM
same,IC50,[4],0.571 µM
same,"viability, T/C","second compound 0.00316 µM, first compound 0.0316 µM",111%
same,"viability, T/C","second compound 0.00316 µM, first compound 0.1 µM",75.6%
same,"viability, T/C","second compound 0.00316 µM, first compound 0.316 µM",55.9%
same,"viability, T/C","second compound 0.00316 µM, first compound 1 µM",51.5%
same,"viability, T/C","second compound 0.00316 µM, first compound 3.16 µM",36.5%
same,"viability, T/C","second compound 0.00316 µM, first compound 10 µM",25.3%
same,"viability, T/C","second compound 0.01 µM, first compound 0.0316 µM",104%
same,"viability, T/C","second compound 0.01 µM, first compound 0.1 µM",83.6%
same,"viability, T/C","second compound 0.01 µM, first compound 0.316 µM",61.1%
same,"viability, T/C","second compound 0.01 µM, first compound 1 µM",42.2%
same,"viability, T/C","second compound 0.01 µM, first compound 3.16 µM",40.4%
same,"viability, T/C","second compound 0.01 µM, first compound 10 µM",26.5%
same,"viability, T/C",[7],96.5%
same,"viability, T/C",[8],70.1%
same,"viability, T/C",[9],58.9%
same,"viability, T/C",[10],44.9%
same,"viability, T/C",[31],38.5%
same,"viability, T/C",[32],26%
same,"viability, T/C",[11],85.6%
same,"viability, T/C",[12],66.3%
same,"viability, T/C",[13],68.8%
same,"viability, T/C",[14],50.7%
same,"viability, T/C",[33],40%
same,"viability, T/C",[34],21.6%
same,"viability, T/C",[15],85.9%
same,"viability, T/C",[16],78.1%
same,"viability, T/C",[17],55.1%
same,"viability, T/C",[18],40.9%
same,"viability, T/C",[35],37.5%
same,"viability, T/C",[36],26.9%
same,"viability, T/C",[19],87.9%
same,"viability, T/C",[20],67.6%
same,"viability, T/C",[21],60.5%
same,"viability, T/C",[22],37.9%
same,"viability, T/C",[37],41.3%
same,"viability, T/C",[38],28.7%
